The text below walks through data of patent US4039540A, “3-Substituted quinoxaline-2-carboxamide-1,4-dioxides” (Pfizer Inc., priority 1975, dated 1977).

For one assay, the system named is Strep. pyrogens. Kind of assay: in vitro antibacterial activity, two-fold serial dilution in Brain-Heart Infusion Broth (MIC). Conditions: overnight, anaerobic. The class given is cell-based. The method, then: (§1) The broth is inoculated with bacteria and with the test quinoxaline-1,4-dioxide and then it is incubated overnight under anerobic conditions. On the next day, the test is read visually. The minimum inhibitory concentration (MIC) of test compound is the lowest concentration which prevents turbidity, i.e., which prevents growth of the microorganism.
(§2) In vitro and in vivo activity of representative compounds of this invention, determined as aforesaid, are reported in the following tabulation for compounds of the formula: [drawing 12]

Assay [1] deals with E. coli. The description is as above. The class given is cell-based. The note with it: Escherichia coli, overnight, anaerobic. The method, then: as §1, §2
The test system of the next assay is Strep. pyogenes. Nature of the assay: in vivo activity in mice infected with a lethal inoculum of Strep. pyogenes. Conditions: Streptococcus pyogenes, multiple dosing. The method, then: (§3) In determining the in vivo activity of the quinoxaline-1,4-dioxides of this invention, the test compound is administered to mice which have been infected by […] injection of a lethal inoculum of pathogenic bacteria. The test compound is administered using a multiple dosing regimen and using either the oral (PO) or the subcutaneous (SC) route. The inoculum of bacteria varies from about 1 to about 10 times the amount needed to kill 100% of the mice under the conditions of the test. At the end of the test, the activity of the compound is assessed by counting the number of survivors among the treated animals.
as §2

The subject of assay [2] is E. coli. Kind of assay: in vivo activity in mice infected with a lethal inoculum of E. coli. Conditions: Escherichia coli, sc, subcutaneous, multiple dosing, read-out: IN VIVO E. coli, number of survivors among the treated animals. The method, then: as §3, §2
Setting [3] is: oral, read-out: IN VIVO Strep. pyogenes, number of survivors among the treated animals, PO (data in parenthesis).
Where [4] appears, read: sc, subcutaneous, read-out: IN VIVO Strep. pyogenes, number of survivors among the treated animals.

The structures appear in SMILES notation. ≈ marks a conversion by molar mass, not a printed value. Where two headings read alike, the source gives them in different places.

Take `NC(=O)c1c(CS(=O)(=O)CCO)[n+]([O-])c2ccccc2[n+]1[O-]` [NH2; SO2 CH2 CH2 OH; H]: the figures for the MIC against Strep. pyrogens and in the assay with E. coli [1] were 6.25 µg/mL (≈ 19.1 µM) and 12.5 µg/mL (≈ 38.2 µM), respectively. Also, the responders at 50 mg/kg with Strep. pyogenes (setting [3]) was 80%; in the assay with Strep. pyogenes (setting [4]), 40%. In addition, the responders at 25 mg/kg in the assay with E. coli [2] turned out to be 0%.
`NC(=O)c1c(CS(=O)(=O)CCCN2CCOCC2)[n+]([O-])c2ccccc2[n+]1[O-]` [NH2; drawing 20; H]: the minimum inhibitory concentration (MIC) against Strep. pyrogens and against E. coli [1] was 12.5 µg/mL (≈ 30.5 µM) throughout. For the same compound, the responders at 50 mg/kg was found to be 60% with Strep. pyogenes (setting [3]) and 100% with Strep. pyogenes (setting [4]). Further, the responders at 25 mg/kg with E. coli [2] was 20%.
With `NC(=O)c1c(CS(=O)(=O)CCCN2CCCCC2)[n+]([O-])c2ccccc2[n+]1[O-]` [NH2; drawing 24; H], the MIC with Strep. pyrogens and against E. coli [1] was 6.25 µg/mL (≈ 15.3 µM) each time. Also, the values for the responders at 50 mg/kg in the assay on Strep. pyogenes (setting [3]) and with Strep. pyogenes (setting [4]) were 40% and 100%, respectively. For the same compound, the responders at 25 mg/kg in the assay with E. coli [2] was 100%.
Consider `CCCCNC(=O)c1c(CS(=O)(=O)CCCN(C)C)[n+]([O-])c2ccccc2[n+]1[O-]` [NH(CH2)3 CH3; SO2 (CH2)3 N(CH3)2; H], for which the MIC with Strep. pyrogens and in the assay on E. coli [1] was 25 µg/mL (≈ 58.9 µM) in each case. Besides, the responders at 50 mg/kg in the assay with Strep. pyogenes (setting [3]) was 80%; in the assay with Strep. pyogenes (setting [4]), 100%. In the assay with E. coli [2], the responders at 25 mg/kg was found to be 50%.
`CCN(CC)CCCNC(=O)c1c(CS(=O)(=O)CCO)[n+]([O-])c2ccccc2[n+]1[O-]` [NH(CH2)3 N(Et)2; SO2 CH2 CH2 OH; H]: the MIC is 200 µg/mL (≈ 454 µM) with Strep. pyrogens and above 200 µg/mL in the assay with E. coli [1]. The responders at 50 mg/kg with Strep. pyogenes (setting [4]) worked out at 10%. Besides, the responders at 25 mg/kg in the assay with E. coli [2] came out at 50%.
With `O=C(NCCCCc1ccccc1)c1c(CS(=O)(=O)CCO)[n+]([O-])c2ccccc2[n+]1[O-]` [NH(CH2)4 .phi.; SO2 CH2 CH2 OH; H], the MIC is 3.12 µg/mL (≈ 6.8 µM) in the assay with Strep. pyrogens and above 200 µg/mL in the assay with E. coli [1]. The responders at 50 mg/kg in the assay with Strep. pyogenes (setting [3]) and in the assay on Strep. pyogenes (setting [4]) was 10% throughout. The responders at 25 mg/kg in the assay on E. coli [2] was found to be 20%.
Consider `CCCCNC(=O)c1c(CSCCO)[n+]([O-])c2ccccc2[n+]1[O-]` [NHBu; SCH2 CH2 OH; H], for which the MIC in the assay with Strep. pyrogens and in the assay with E. coli [1] was 50 µg/mL (≈ 142 µM) throughout. In addition, the responders at 50 mg/kg with Strep. pyogenes (setting [3]) amounted to 10%; with Strep. pyogenes (setting [4]), 20%. For the same compound, the responders at 25 mg/kg with E. coli [2] was 0%.
As for `CCCCNC(=O)c1c(CS(=O)(=O)CCO)[n+]([O-])c2ccccc2[n+]1[O-]` [NHBu; SO2 CH2 CH2 OH; H], the values for the minimal inhibitory concentration (MIC) in the assay with Strep. pyrogens and against E. coli [1] were 1.56 µg/mL (≈ 4.07 µM) and 25 µg/mL (≈ 65.2 µM), respectively. Also, the responders at 50 mg/kg with Strep. pyogenes (setting [3]) came out at 40%; with Strep. pyogenes (setting [4]), 0%. The responders at 25 mg/kg with E. coli [2] was 40%.
`O=C(NCc1ccccc1)c1c(CS(=O)(=O)CCO)[n+]([O-])c2ccccc2[n+]1[O-]` [NHCH2 .phi.; SO2 CH2 CH2 OH; H]: the minimal inhibitory concentration (MIC) turned out to be 0.781 µg/mL (≈ 1.87 µM) against Strep. pyrogens and 200 µg/mL (≈ 479 µM) against E. coli [1]. The responders at 50 mg/kg in the assay with Strep. pyogenes (setting [3]) and in the assay on Strep. pyogenes (setting [4]) was 20% throughout. The responders at 25 mg/kg with E. coli [2] came to 20%.
Turning to `O=C(NCCCO)c1c(CSCCO)[n+]([O-])c2ccccc2[n+]1[O-]` [NHCH2 CH2 CH2 OH; SCH2 CH2 OH; H], the MIC is 25 µg/mL (≈ 70.7 µM) with Strep. pyrogens and 50 µg/mL (≈ 141 µM) in the assay on E. coli [1]. The responders at 50 mg/kg stood at 30% with Strep. pyogenes (setting [3]) and 10% with Strep. pyogenes (setting [4]). Moreover, the responders at 25 mg/kg in the assay on E. coli [2] was found to be 20%.
On the same counts, the results for `O=C(NCCCO)c1c(CS(=O)(=O)CCO)[n+]([O-])c2ccccc2[n+]1[O-]` [NHCH2 CH2 CH2 OH; SO2 CH2 CH2 OH; H] are 12.5 µg/mL (≈ 32.4 µM), 100 µg/mL (≈ 259 µM), 50%, 40% and 0%.
As to `CCCNC(=O)c1c(CS(=O)(=O)CCCN(C)C)[n+]([O-])c2ccccc2[n+]1[O-]` [NHCH2 CH2 CH3; SO2 (CH2)3 N(CH3)2; H], the minimum inhibitory concentration (MIC) against Strep. pyrogens and in the assay on E. coli [1] was 25 µg/mL (≈ 60.9 µM) in each case. Besides, the results for the responders at 50 mg/kg with Strep. pyogenes (setting [3]) and in the assay on Strep. pyogenes (setting [4]) were 80% and 100%, respectively. Further, the responders at 25 mg/kg with E. coli [2] came to 20%.
On to `CCCNC(=O)c1c(CS(=O)(=O)CCCOC(C)=O)[n+]([O-])c2ccccc2[n+]1[O-]` [NHCH2 CH2 CH3; SO2 CH2 CH2 CH2 OAc; H], for which the values for the MIC against Strep. pyrogens and in the assay with E. coli [1] were 50 µg/mL (≈ 118 µM) and 200 µg/mL (≈ 470 µM), respectively. Further, the responders at 50 mg/kg with Strep. pyogenes (setting [3]) came to 0%; in the assay on Strep. pyogenes (setting [4]), 30%. Besides, the responders at 25 mg/kg with E. coli [2] came out at 0%.

The term MIC denotes the lowest concentration found to suppress growth. Lower therefore signals greater potency.
